The values that follow come from patent US4880809A, “1,4-disubstituted piperazines (or homopiperazines) as platelet-activating factor antagonists” (Takeda Chemical Industries, Ltd., priority 1987, dated 1989).

The structures appear in SMILES notation. Counter-ions that a name gives are not always drawn.

The test system of assay [1] is PAF-Induced Hypotension. In words: Inhibitory Action on PAF-Induced Hypotension. The class given is in vivo, SD (Jcl) male rats. As to conditions: po, 30 mg/kg p.o., rat. As for the experimental part: SD (Jcl) male rats of 6 to 8 week old were subjected to the experiment. After fasting overnight, the rats were cannulated into the femoral artery and vein under anesthesia with pentobarbital. A transducer (MPU-0.5-290O-III, TOYO BALDWIN, Japan) was connected with the artery cannula, and blood pressure was continuously measured. […] The rate of inhibition of lowering of blood pressure after administration of the test samples against the control was evaluated.

Assay [2] relates to PAF-Induced Platelet Aggregation. Put plainly: Inhibitory Action on PAF-Induced Platelet Aggregation. The following applies: Oryctolagus cuniculus, Drug Concentration: 3 × 10^-5 M, rabbit PRP. The class given is cell-based, New Zealand white male rabbits.
Method: Blood was collected from the hearts of conscious New Zealand white male rabbits weighing 2 to 3 kg using citric acid as an anticoagulant (one volume part of 3.15% citric acid per 9 volume parts of the whole blood). The blood was subjected to a centrifuge at 800 rpm for ten minutes to obtain platelet rich plasma (PRP). The remaining blood after collecting the PRP was subjected to a centrifuge at 3000 rpm for ten minutes to obtain platelet poor plasma (PPP). PRP was diluted with PPP, and the number of platelets was adjusted to 500,000/μl. Platelet aggregation was examined by means of turbidimetry [Born, Nature, 194, 927-929 (1962)] with 8 channel aggregometer (NBS HEMA TRACER 6 Nikoh, Bioscience, Japan). More concretely, PRP (250 μl) was kept warm (37° C.) for three minutes in a silicon-processed cuvette, to which was added a test sample (25 μl) dissolved in a physiological saline or in 10mM dimethylsulfoxide followed by dilution with a physiological saline. Two minutes later, PAF (25 μl, 3×10^-9 -1×10^-8 M), dissolved in a physiological saline, was added and then the maximum aggregation rate was determined. As the control, physiological saline without test sample was added to the cuvette, and the inhibitory rate thereon was determined.

As a reminder, the inhibition in vivo is the drop in the measured response relative to a control, in per cent. Read a low inhibition in vivo as a weak effect. In general, inhibition refers to the relative decrease from the control value, in per cent. Lower therefore signals a response near the control. `COc1cc2c(cc1OC)CCC(C(=O)N1CCN(C(=O)c3cc(OC)c(OC)c(OC)c3)CC1)=C2` [Example 56, 1-(6,7-dimethoxy-1,2-dihydro-3-naphthoyl)-4-(3,4,5-trimethoxybenzoyl)piperazine]: the inhibition in vivo at 30 mg/kg is 100% in assay [1] (after 1 hr), 97% in assay [1] (after 2 hrs) and 88% in assay [1] (after 4 hrs). In assay [2], this molecule displayed an inhibition at 30 µM of 100%.
Take `CCOc1cc2c(cc1OCC)CCC(C(=O)N1CCN(Cc3cc(OC)c(OC)c(OC)c3)CC1)=C2` [Example 58, 1-(6,7-diethoxy-1,2-dihydro-3-naphthoyl)-4-(3,4,5-trimethoxybenzyl)piperazine hydrochloride]: the results for the inhibition in vivo at 30 mg/kg in assay [1] (after 1 hr), in assay [1] (after 2 hrs) and in assay [1] (after 4 hrs) were 88%, 95% and 65%, respectively. This molecule returned an inhibition at 30 µM in assay [2] of 100%.
Take `CCCOc1cc2c(cc1OCCC)CCC(C(=O)N1CCN(Cc3cc(OC)c(OC)c(OC)c3)CC1)=C2` [Example 60, 1-(6,7-dipropoxy-1,2-dihydro-3-naphthoyl)-4-(3,4,5-trimethoxybenzyl)-piperazine hydrochloride]: the inhibition in vivo at 30 mg/kg in assay [1] (after 1 hr) came to 79%; in assay [1] (after 2 hrs), 69%; in assay [1] (after 4 hrs), 60%. The same molecule returned an inhibition at 30 µM in assay [2] of 100%.
As for `CCOc1cc2c(cc1OCC)CCC(C(=O)N1CCN(C(=O)c3cc(OC)c(OC)c(OC)c3)CC1)=C2` [Example 65, 1-(6,7-diethoxy-1,2-dihydro-3-naphthoyl)-4-(3,4,5-trimethoxybenzoyl)piperazine], the inhibition in vivo at 30 mg/kg is 100% in assay [1] (after 1 hr), 100% in assay [1] (after 2 hrs) and 77% in assay [1] (after 4 hrs). For the same molecule, testing at 30 µM in assay [2] gave an inhibition of 100%.
Regarding `CCCOc1cc2c(cc1OCCC)CCC(C(=O)N1CCN(C(=O)c3cc(OC)c(OC)c(OC)c3)CC1)=C2` [Example 66, 1-(6,7-dipropoxy-1,2-dihydro-3-naphthoyl)-4-(3,4,5-trimethoxybenzoyl)piperazine], the inhibition in vivo at 30 mg/kg in assay [1] (after 1 hr) amounted to 77%; in assay [1] (after 2 hrs), 79%; in assay [1] (after 4 hrs), 68%. The molecule further registered an inhibition at 30 µM in assay [2] of 100%.
In the case of `CCOc1cc2c(cc1OCC)CCCC(C(=O)N1CCN(Cc3cc(OC)c(OC)c(OC)c3)CC1)=C2` [Example 72, 1-(2,3-diethoxy-6,7-dihydro-5H-benzocyclohepten-8-ylcarbonyl)-4-(3,4,5-trimethoxybenzyl)piperazine hydrochloride], the figures for the inhibition in vivo at 30 mg/kg in assay [1] (after 1 hr), in assay [1] (after 2 hrs) and in assay [1] (after 4 hrs) were 98%, 99% and 75%, respectively. The same molecule returned an inhibition at 30 µM in assay [2] of 100%.
As for `COc1cc2c(cc1OC)CCCCC(C(=O)N1CCN(Cc3cc(OC)c(OC)c(OC)c3)CC1)=C2` [Example 84, 1-(2,3-dimethoxy-5,6,7,8-tetrahydrobenzocycloocten-9-ylcarbonyl)-1-(3,4,5-trimethoxybenzyl)piperazine hydrochloride], the inhibition in vivo at 30 mg/kg in assay [1] (after 1 hr) was 100%; in assay [1] (after 2 hrs) it was 100%; in assay [1] (after 4 hrs) it was 73%. This molecule also displayed an inhibition at 30 µM in assay [2] of 100%.
For `COc1cc2c(cc1OC)CCCCC(C(=O)N1CCN(C(=O)c3cc(OC)c(OC)c(OC)c3)CC1)=C2` [Example 85, 1-(2,3-dimethoxy-5,6,7,8-tetrahydrobenzocycloocten-9-ylcarbonyl)-4-(3,4,5-trimethoxybenzoyl)piperazine], the inhibition in vivo at 30 mg/kg in assay [1] (after 1 hr), in assay [1] (after 2 hrs) and in assay [1] (after 4 hrs) was 100% each time. In assay [2], this molecule showed an inhibition at 30 µM of 100%.
